The values that follow come from patent US20040223918A1, “Aerosolization of cromolyn sodium using a capillary aerosol generator” (Chrysalis Technologies Incorporated, priority 2003, published 2004).

The conditions of series [1]: cited from earlier work.
Series [2] can be described thus: Solubility of cromolyn sodium in ethanol and PG/EtOH mixtures. The note with it: Table 4 PG/EtOH mixtures, 0.25% Brij30 and 0.25% lecithin. Type of series: physicochemical. From the text:
FIG. 7 is a graph illustrating the solubility of cromolyn sodium in various propylene glycol/ethanol (PG/EtOH) mixtures, with 0.25% Brij30 and 0.25% lecithin. […] When formulated with 0.25% w/v Brij 30 and 0.25% lecithin, cromolyn sodium suspension formulations remained visually stable over a period of one to two weeks. There was no significant change in the particle size distribution of the suspended particles up to three days of standing at ambient condition. The addition of PG was primarily to prevent capillary clogging. The amount of PG required in the formulation was dependent on the API concentration.

Consider `O=C(O)c1cc(=O)c2c(OCC(O)COc3cccc4oc(C(=O)O)cc(=O)c34)cccc2o1` [cromolyn sodium], for which the solubility in ethanol result in series [1] is reported as “virtually insoluble”. In series [2], the “solubility in PG/EtOH mixtures” value is on record as “almost insoluble”.
